Laboratory results from patent US5198445A, “Composition and use of substituted 3-thio-2-propynenitriles as industrial antimicrobials” (The Dow Chemical Company, priority 1992, dated 1993).
Converted amounts (≈) assume the structure as drawn. Where two headings read alike, the source gives them in different places.

Columns and labels:
Fusarium oxysporum (Fo) = test: MIC in malt yeast agar, Fusarium oxysporum; assay type: cell-based, Fusarium oxysporum ATCC 48112; conditions: read-out: Minimum Inhibitory Concentration, Fo
Protocol: (§1) The minimum inhibitory concentration (MIC) for the compounds listed in Table I is determined for 9 bacteria, using nutrient agar, and 7 yeast and fungi, using malt yeast agar. A one percent solution of the test compound is prepared in a mixture of acetone and water. Nutrient agar is prepared at pH 6.8, representing a neutral medium, and at pH 8.2, representing an alkaline medium. The nutrient agars are prepared by adding 23 g of nutrient agar to one-liter of deionized water. In addition, the alkaline medium is prepared by adjusting a 0.04M solution of N-[tris-(hydroxymethyl)methyl]-glycine buffered deionized water with concentrated sodium hydroxide to a pH of […]. Malt yeast agar is prepared by adding 3 g yeast extract and 45 g malt agar per liter of deionized water. The specific agar is dispensed in 30 ml aliquots into 25×200 mm test tubes, capped and autoclaved for 15 minutes at 115° C. The test tubes containing the agar are cooled in a water bath until the temperature of the agar is 48° C. Then, an appropriate amount of the one percent solution of the test compound is added (except in the controls where no compound is added) to the respective test tubes so that the final concentrations are 500, 250, 100, 50, 25, 10, 5, 2.5, 1.0 and zero parts per million of the test compound in the agar, thus having a known concentration of test compound dispersed therein. The contents of the test tubes are then transferred to respective petri plates. After drying for 24 hours, the petri plates containing nutrient agar are inoculated with bacteria and those containing malt yeast agar are inoculated with yeast and fungi.
(§2) The inoculation with the yeast and fungi is accomplished as follows. Cultures of yeast and fungi are incubated for seven days on malt yeast agar at 30° C. These cultures are used to prepare suspensions by the following procedure. A suspension of each organism is prepared by adding 10 ml of sterile saline and 10 microliters of octylphenoxy polyethoxy ethanol (TRITON® X-100, a trademark of Rohm & Haas Company) to the agar slant of yeast or fungi. The sterile saline/octylphenoxy polyethoxy ethanol solution is then agitated with a sterile swab to suspend the microorganism grown on the slant. Each resulting suspension is diluted into sterile saline (1 part suspension: 9 parts sterile saline). Aliquots of these dilutions are placed in individual wells of Steer's Replicator and petri plates inoculated as previously described. The petri plates are incubated at 30° C. and read after 48 hours for yeast and 72 hours for fungi.
(§3) Table II lists the bacteria, yeast and fungi used in the MIC test described above along with their respective American Type Culture Collection (ATCC) identification numbers.
(§4) The following MIC and MEC antimicrobial tests, whose results are shown in Tables XIII-XVII, are performed using the same methods as described hereinabove.

Candida albicans (Ca) = test: MIC in malt yeast agar, Candida albicans; assay type: cell-based, Candida albicans ATCC 10231; conditions: read-out: Minimum Inhibitory Concentration, Ca
Protocol: as §1, §2, §3, §4

[1] = tested on: Salmonella choleraesuis (Sc); test: MIC in nutrient agar, Salmonella choleraesuis; assay type: cell-based, Salmonella choleraesuis ATCC 10708
Protocol: as §1
(§5) The inoculation with bacteria is accomplished by using the following procedure. Twenty-four hour-cultures of each of the bacteria are prepared by incubating the respective bacteria in tubes containing nutrient broth for 24 hours at 30° C. in a shaker. Dilutions of each of the 24 hour-cultures are made so that nine separate suspensions (one for each of the nine test bacteria) are made, each containing 10^8 colony forming units (CFU) per ml of suspension of a particular bacteria. Aliquots of 0.3 ml of each of the bacterial suspensions are used to fill the individual wells of Steer's Replicator. For each microbial suspension, 0.3 ml was used to fill three wells (i.e., three wells of 0.3 ml each) so that for the nine different bacteria, 27 wells are filled. The Steer's Replicator is then used to inoculate both the neutral and alkaline pH nutrient agar petri plates.
(§6) The inoculated petri plates are incubated at 30° C. for 48 hours and then read to determine if the test compound which is incorporated into the agar prevented growth of the respective bacteria.
as §3, §4

Escherichia coli (Ec) = test: MIC in nutrient agar, Escherichia coli; assay type: cell-based, Escherichia coli ATCC 11229
Protocol: as §1, §5, §6, §3, §4

Trichoderma viride (Tv) = test: MIC in malt yeast agar, Trichoderma viride; assay type: cell-based, Trichoderma viride ATCC 8678; conditions: read-out: Minimum Inhibitory Concentration, Tv
Protocol: as §1, §2, §3, §4

Proteus vulgaris (Pv) = test: MIC in nutrient agar, Proteus vulgaris; assay type: cell-based, Proteus vulgaris ATCC 881
Protocol: as §1, §5, §6, §3, §4

[2] = tested on: Pseudomonas aeruginosa (PRD-10); test: MIC in nutrient agar, Pseudomonas aeruginosa PRD-10; assay type: cell-based, Pseudomonas aeruginosa ATCC 15442
Protocol: as §1, §5, §6, §3, §4

Bacillus subtilis (Bs) = test: MIC in nutrient agar, Bacillus subtilis; assay type: cell-based, Bacillus subtilis ATCC 8473
Protocol: as §1, §5, §6, §3, §4

[3] = Salmonella enterica, CHOLERAESUIS, pH 6.8; read-out: Minimum Inhibitory Concentration, Sc
[4] = Salmonella enterica, CHOLERAESUIS, pH 8.2; read-out: Minimum Inhibitory Concentration, Sc
[5] = Escherichia coli, pH 6.8; read-out: Minimum Inhibitory Concentration, Ec
[6] = Escherichia coli, pH 8.2, read-out: Minimum Inhibitory Concentration, Ec
[7] = pH 6.8, read-out: Minimum Inhibitory Concentration, Pv
[8] = pH 8.2, read-out: Minimum Inhibitory Concentration, Pv
[9] = Pseudomonas aeruginosa, pH 6.8; read-out: Minimum Inhibitory Concentration, PRD
[10] = Pseudomonas aeruginosa, pH 8.2; read-out: Minimum Inhibitory Concentration, PRD
[11] = Bacillus subtilis, pH 6.8; read-out: Minimum Inhibitory Concentration, Bs
[12] = Bacillus subtilis, pH 8.2, read-out: Minimum Inhibitory Concentration, Bs
[13] = Escherichia coli, pH 8.2; read-out: Minimum Inhibitory Concentration, Ec
[14] = Bacillus subtilis, pH 6.8, read-out: Minimum Inhibitory Concentration, Bs
[15] = Bacillus subtilis, pH 8.2; read-out: Minimum Inhibitory Concentration, Bs

SMILES	MIC (Fusarium oxysporum (Fo); malt yeast agar) [µg/mL]	MIC (Candida albicans (Ca); malt yeast agar) [µg/mL]	MIC [1, 3] [µg/mL]	MIC [1, 4] [µg/mL]	MIC (Escherichia coli (Ec); [5]) [µg/mL]	MIC (Escherichia coli (Ec); [6]) [µg/mL]	MIC (Trichoderma viride (Tv)) [µg/mL]	MIC (Proteus vulgaris (Pv); [7]) [µg/mL]	MIC (Proteus vulgaris (Pv); [8]) [µg/mL]	MIC [2, 9] [µg/mL]	MIC [2, 10] [µg/mL]	MIC (Bacillus subtilis (Bs); [11]) [µg/mL]	MIC (Bacillus subtilis (Bs); [12]) [µg/mL]	MIC (Escherichia coli (Ec); [13]) [µg/mL]	MIC (Trichoderma viride (Tv); malt yeast agar) [µg/mL]	MIC (Bacillus subtilis (Bs); [14]) [µg/mL]	MIC (Bacillus subtilis (Bs); [15]) [µg/mL]	also measured
CCSC#CC#N [B, 3-ethylthio-2-propynenitrile]	< 1	< 1	5 (≈ 45 µM)	10 (≈ 90 µM)	5 (≈ 45 µM)	10 (≈ 90 µM)	10 (≈ 90 µM)	< 1	5 (≈ 45 µM)	25 (≈ 225 µM)	25 (≈ 225 µM)	25 (≈ 225 µM)	25 (≈ 225 µM)					
N#CC#CSC1CCCC1 [C, 3-cyclopentylthio-2-propynenitrile]	< 1		< 10	25 (≈ 165 µM)	< 10			< 10	< 10	250 (≈ 1650 µM)	250 (≈ 1650 µM)			< 10	2.5 (≈ 16.5 µM)	100 (≈ 661 µM)	250 (≈ 1650 µM)	
CSC#CC#N [Compound A, 3-methylthio-2-propynenitrile]	0.5 (≈ 5.15 µM)	0.5 (≈ 5.15 µM)	2.5 (≈ 25.7 µM)	5 (≈ 51.5 µM)	2.5 (≈ 25.7 µM)			< 1	2.5 (≈ 25.7 µM)	2.5 (≈ 25.7 µM)	5 (≈ 51.5 µM)	2.5 (≈ 25.7 µM)		5 (≈ 51.5 µM)	0.25 (≈ 2.57 µM)		5 (≈ 51.5 µM)	Minimum Inhibitory Concentration, Sc ([1]; pH 8.2): 5 ppm; Minimum Inhibitory Concentration, Ec (Escherichia coli (Ec); pH 8.2): 5 ppm; Minimum Inhibitory Concentration, PRD ([2]; pH 8.2): 5 ppm; Minimum Inhibitory Concentration, Bs (Bacillus subtilis (Bs); pH 8.2): 5 ppm
CSC=C(Cl)C#N [Compound G, 2-chloro-3-(methylthio)-2-propenenitrile]						10 (≈ 74.8 µM)	100 (≈ 748 µM)	50 (≈ 374 µM)	5 (≈ 37.4 µM)				10 (≈ 74.8 µM)			75 (≈ 561 µM)		MIC (Fusarium oxysporum (Fo)): 50 µg/mL (≈ 374 µM); MIC (Candida albicans (Ca)): 50 µg/mL (≈ 374 µM); MIC ([1]; Salmonella enterica, CHOLERAESUIS, pH 6.8, read-out: Minimum Inhibitory Concentration, Sc): 50 µg/mL (≈ 374 µM); MIC ([1]; Salmonella enterica, CHOLERAESUIS, pH 8.2, read-out: Minimum Inhibitory Concentration, Sc): 5 µg/mL (≈ 37.4 µM); MIC (Escherichia coli (Ec); Escherichia coli, pH 6.8, read-out: Minimum Inhibitory Concentration, Ec): 50 µg/mL (≈ 374 µM); MIC ([2]; Pseudomonas aeruginosa, pH 6.8, read-out: Minimum Inhibitory Concentration, PRD): 50 µg/mL (≈ 374 µM); MIC ([2]; Pseudomonas aeruginosa, pH 8.2, read-out: Minimum Inhibitory Concentration, PRD): 10 µg/mL (≈ 74.8 µM)
N#CC#CSc1ccc(Cl)cc1 [D, 3-(4-chlorophenylthio)-2-propynenitrile]	< 1	< 1	< 10	50 (≈ 258 µM)	< 10			< 10	50 (≈ 258 µM)	25 (≈ 129 µM)	100 (≈ 516 µM)	< 10		50 (≈ 258 µM)	2.5 (≈ 12.9 µM)		50 (≈ 258 µM)	
